Test results reported in PMC10850145, “Hormonal steroids induce multidrug resistance and stress response genes in Neisseria gonorrhoeae by binding to MtrR” (Nature Communications, 2024).
Where “and” joins values, the source holds several entries; their conditions need not be identical. Equal values may be shown once. Read-outs that look alike come from different tables or passages of the source.

Test system: mtrC-lacZ expression
Type: cell-based, Neisseria gonorrhoeae
Settings: for Miller units, Mean: mtrCDE, ΔmtrR, left block Plate-4; for β-galactosidase activity, Miller units (single replicate) / β-galactosidase activity, individual replicate: mtrR WT in cis; for β-galactosidase activity, individual replicate: single replicate values, second (right) block; for Miller units: single well; for mtrC-lacZ β-galactosidase activity, Mean: left block of sheet (mtrCDE)
[1] = second block of sheet (c39-c76), ΔmtrR + mtrR R176E in trans, 6.25 µM
[2] = second block of sheet (c39-c76), ΔmtrR + mtrR R176E in trans, 12.5 µM
[3] = second block of sheet (c39-c76), ΔmtrR + mtrR R176E in trans, 25 µM
[4] = second block of sheet (c39-c76), ΔmtrR + mtrR R176E in trans, 50 µM

Structure (SMILES): C[C@]12CC[C@H]3[C@@H](CCC4=CC(=O)CC[C@@]43C)[C@@H]1CC[C@@H]2O [Testosterone, testosterone]
- Miller units, Mean (testosterone 50 µM): 284 Miller units
- Miller units, Mean (testosterone 100 µM): 369 Miller units
- β-galactosidase activity, Miller units (single replicate) (1 µM, first data set (c15-c36)): 149 Miller units and 125 Miller units and 138 Miller units and 141 Miller units
- β-galactosidase activity, individual replicate (6.25 µM hormone): 103 Miller units and 88 Miller units
- β-galactosidase activity, Miller units (single replicate) (6.25 µM, second data set (c53-c74)): 73 Miller units and 58 Miller units
- β-galactosidase activity, Miller units (single replicate) (10 µM, first data set (c15-c36)): 251 Miller units and 213 Miller units and 245 Miller units and 230 Miller units
- β-galactosidase activity, individual replicate (12.5 µM hormone): 126 Miller units
- β-galactosidase activity, Miller units (single replicate) (12.5 µM, second data set (c53-c74)): 92 Miller units and 94 Miller units
- β-galactosidase activity, individual replicate (25 µM hormone): 144 Miller units and 138 Miller units
- β-galactosidase activity, Miller units (single replicate) (25 µM, first data set (c15-c36)): 283 Miller units and 251 Miller units and 242 Miller units and 281 Miller units
- β-galactosidase activity, Miller units (single replicate) (25 µM, second data set (c53-c74)): 129 Miller units and 111 Miller units
- β-galactosidase activity, individual replicate (50 µM hormone): 161 Miller units and 150 Miller units
- β-galactosidase activity, Miller units (single replicate) (50 µM, first data set (c15-c36)): 237 Miller units and 229 Miller units and 224 Miller units and 225 Miller units
- β-galactosidase activity, Miller units (single replicate) (50 µM, second data set (c53-c74)): 118 Miller units and 110 Miller units
- β-galactosidase activity, Miller units (single replicate) (100 µM, first data set (c15-c36)): 228 Miller units and 230 Miller units and 281 Miller units and 254 Miller units
- β-galactosidase activity, Mean [1]: 60 Miller units
- β-galactosidase activity, single replicate [1]: 66 Miller units and 62 Miller units and 61 Miller units and 50 Miller units
- β-galactosidase activity, Mean [2]: 68 Miller units
- β-galactosidase activity, single replicate [2]: 65 Miller units and 76 Miller units and 70 Miller units and 59 Miller units
- β-galactosidase activity, Mean [3]: 80 Miller units
- β-galactosidase activity, single replicate [3]: 70 Miller units and 77 Miller units and 92 Miller units and 80 Miller units
- β-galactosidase activity, Mean [4]: 83 Miller units
- β-galactosidase activity, single replicate [4]: 89 Miller units and 78 Miller units and 94 Miller units and 70 Miller units
- Miller units (plate rows 1-4, plate columns 1-6 (first strain), 6.25 µM hormone): 96 Miller units and 59 Miller units and 65 Miller units and 57 Miller units
- Miller units (plate rows 1-4, plate columns 1-6 (first strain), 12.5 µM hormone): 116 Miller units and 66 Miller units and 73 Miller units and 70 Miller units
- Miller units (plate rows 1-4, plate columns 1-6 (first strain), 25 µM hormone): 132 Miller units and 102 Miller units and 83 Miller units and 75 Miller units
- Miller units (plate rows 1-4, plate columns 1-6 (first strain), 50 µM hormone): 147 Miller units and 111 Miller units and 107 Miller units and 103 Miller units
- Miller units (plate rows 1-4, plate columns 7-12 (second strain), 6.25 µM hormone): 119 Miller units and 100 Miller units and 89 Miller units and 76 Miller units
- Miller units (plate rows 1-4, plate columns 7-12 (second strain), 12.5 µM hormone): 126 Miller units and 101 Miller units and 100 Miller units and 81 Miller units
- Miller units (plate rows 1-4, plate columns 7-12 (second strain), 25 µM hormone): 155 Miller units and 122 Miller units and 93 Miller units and 79 Miller units
- Miller units (plate rows 1-4, plate columns 7-12 (second strain), 50 µM hormone): 151 Miller units and 132 Miller units and 101 Miller units and 93 Miller units
- β-galactosidase activity, mtrC-lacZ, Mean (strain WT (FA19/pLES94-mtrC), hormone 6.25 µM): 141 Miller units
- β-galactosidase activity, mtrC-lacZ, Mean (strain WT (FA19/pLES94-mtrC), hormone 12.5 µM): 166 Miller units
- β-galactosidase activity, mtrC-lacZ, Mean (strain WT (FA19/pLES94-mtrC), hormone 25 µM): 178 Miller units
- β-galactosidase activity, mtrC-lacZ, Mean (strain WT (FA19/pLES94-mtrC), hormone 50 µM): 195 Miller units
- mtrC-lacZ β-galactosidase activity, Mean (strain WT, 1 µM hormone): 138 Miller units
- β-galactosidase activity, Mean (strain WT, 6.25 µM hormone, second (right) untitled block of sheet Figure S10 (mtrC)): 81 Miller units
- mtrC-lacZ β-galactosidase activity, Mean (strain WT, 10 µM hormone): 235 Miller units
- mtrC-lacZ β-galactosidase activity, Mean (strain WT, 25 µM hormone): 264 Miller units
- β-galactosidase activity, Mean (strain WT, 25 µM hormone, second (right) untitled block of sheet Figure S10 (mtrC)): 130 Miller units
- mtrC-lacZ β-galactosidase activity, Mean (strain WT, 50 µM hormone): 229 Miller units
- β-galactosidase activity, Mean (strain WT, 50 µM hormone, second (right) untitled block of sheet Figure S10 (mtrC)): 134 Miller units
- mtrC-lacZ β-galactosidase activity, Mean (strain WT, 100 µM hormone): 248 Miller units
- activation of mtrC (strain producing MtrR R176E): significantly less activation
- β-galactosidase activity, mtrC-lacZ, Mean (strain ΔmtrR (FA19 ∆mtrR/pLES94-mtrC), hormone 6.25 µM): 265 Miller units
- β-galactosidase activity, mtrC-lacZ, Mean (strain ΔmtrR (FA19 ∆mtrR/pLES94-mtrC), hormone 12.5 µM): 244 Miller units
- β-galactosidase activity, mtrC-lacZ, Mean (strain ΔmtrR (FA19 ∆mtrR/pLES94-mtrC), hormone 25 µM): 276 Miller units
- β-galactosidase activity, mtrC-lacZ, Mean (strain ΔmtrR (FA19 ∆mtrR/pLES94-mtrC), hormone 50 µM): 272 Miller units
- β-galactosidase activity, mtrC-lacZ, Mean (strain ΔmtrR + mtrR D171A (pGCC3-mtrR D171A), hormone 6.25 µM): 170 Miller units
- β-galactosidase activity, mtrC-lacZ, Mean (strain ΔmtrR + mtrR D171A (pGCC3-mtrR D171A), hormone 12.5 µM): 175 Miller units
- β-galactosidase activity, mtrC-lacZ, Mean (strain ΔmtrR + mtrR D171A (pGCC3-mtrR D171A), hormone 25 µM): 170 Miller units
- β-galactosidase activity, mtrC-lacZ, Mean (strain ΔmtrR + mtrR D171A (pGCC3-mtrR D171A), hormone 50 µM): 162 Miller units
- mtrC-lacZ β-galactosidase activity, Mean (strain ΔmtrR + mtrR R176E, 1 µM hormone): 178 Miller units
- β-galactosidase activity, Mean (strain ΔmtrR + mtrR R176E, 6.25 µM hormone, second (right) untitled block of sheet Figure S10 (mtrC)): 60 Miller units
- mtrC-lacZ β-galactosidase activity, Mean (strain ΔmtrR + mtrR R176E, 10 µM hormone): 206 Miller units
- β-galactosidase activity, Mean (strain ΔmtrR + mtrR R176E, 12.5 µM hormone, second (right) untitled block of sheet Figure S10 (mtrC)): 68 Miller units
- β-galactosidase activity, Mean (strain ΔmtrR + mtrR R176E, 25 µM hormone, second (right) untitled block of sheet Figure S10 (mtrC)): 80 Miller units
